Test results reported in patent US20220009920A1 (GB005, Inc., priority 2020, published 2022).

Key:
Assay in all cases: Large panel kinase profiling
Type in all cases: biochemical
Conditions in all cases: 1 μM test article, 1 mM ATP
[1] = molecular target: T1, CAMK4 (Homo sapiens, UniProt Q16566)
T1 construct: AssayQuant Technologies, Inc. (ran the panel)
T1 sequence (Q16566 1-473): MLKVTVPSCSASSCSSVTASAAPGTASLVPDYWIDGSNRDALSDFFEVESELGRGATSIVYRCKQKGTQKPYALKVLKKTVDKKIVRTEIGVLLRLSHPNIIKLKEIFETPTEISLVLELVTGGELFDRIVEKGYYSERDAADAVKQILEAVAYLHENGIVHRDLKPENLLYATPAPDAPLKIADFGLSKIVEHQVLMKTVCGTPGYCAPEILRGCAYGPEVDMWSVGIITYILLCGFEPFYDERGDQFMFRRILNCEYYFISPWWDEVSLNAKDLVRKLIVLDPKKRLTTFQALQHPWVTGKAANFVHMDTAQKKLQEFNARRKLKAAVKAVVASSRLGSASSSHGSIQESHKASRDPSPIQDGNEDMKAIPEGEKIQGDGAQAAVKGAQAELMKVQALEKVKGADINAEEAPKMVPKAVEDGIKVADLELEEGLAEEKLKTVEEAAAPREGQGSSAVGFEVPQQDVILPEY
Outline: (§1)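 With ATP fixed at 1 mM, each kinase was exposed to 1 μM compound in a PhosphoSens CSox-Sensor reaction. Sealed plates were incubated at 30° C. and read in kinetic mode.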

[2] = molecular target: T2, GRK6 (Homo sapiens, UniProt P43250)
T2 construct: AssayQuant Technologies, Inc. (service provider)
Outline: as §1

[3] = molecular target: T3, MYO3B (Homo sapiens, UniProt Q8WXR4)
T3 construct: AssayQuant Technologies, Inc. (assay service)
T3 sequence (Q8WXR4 1-1341): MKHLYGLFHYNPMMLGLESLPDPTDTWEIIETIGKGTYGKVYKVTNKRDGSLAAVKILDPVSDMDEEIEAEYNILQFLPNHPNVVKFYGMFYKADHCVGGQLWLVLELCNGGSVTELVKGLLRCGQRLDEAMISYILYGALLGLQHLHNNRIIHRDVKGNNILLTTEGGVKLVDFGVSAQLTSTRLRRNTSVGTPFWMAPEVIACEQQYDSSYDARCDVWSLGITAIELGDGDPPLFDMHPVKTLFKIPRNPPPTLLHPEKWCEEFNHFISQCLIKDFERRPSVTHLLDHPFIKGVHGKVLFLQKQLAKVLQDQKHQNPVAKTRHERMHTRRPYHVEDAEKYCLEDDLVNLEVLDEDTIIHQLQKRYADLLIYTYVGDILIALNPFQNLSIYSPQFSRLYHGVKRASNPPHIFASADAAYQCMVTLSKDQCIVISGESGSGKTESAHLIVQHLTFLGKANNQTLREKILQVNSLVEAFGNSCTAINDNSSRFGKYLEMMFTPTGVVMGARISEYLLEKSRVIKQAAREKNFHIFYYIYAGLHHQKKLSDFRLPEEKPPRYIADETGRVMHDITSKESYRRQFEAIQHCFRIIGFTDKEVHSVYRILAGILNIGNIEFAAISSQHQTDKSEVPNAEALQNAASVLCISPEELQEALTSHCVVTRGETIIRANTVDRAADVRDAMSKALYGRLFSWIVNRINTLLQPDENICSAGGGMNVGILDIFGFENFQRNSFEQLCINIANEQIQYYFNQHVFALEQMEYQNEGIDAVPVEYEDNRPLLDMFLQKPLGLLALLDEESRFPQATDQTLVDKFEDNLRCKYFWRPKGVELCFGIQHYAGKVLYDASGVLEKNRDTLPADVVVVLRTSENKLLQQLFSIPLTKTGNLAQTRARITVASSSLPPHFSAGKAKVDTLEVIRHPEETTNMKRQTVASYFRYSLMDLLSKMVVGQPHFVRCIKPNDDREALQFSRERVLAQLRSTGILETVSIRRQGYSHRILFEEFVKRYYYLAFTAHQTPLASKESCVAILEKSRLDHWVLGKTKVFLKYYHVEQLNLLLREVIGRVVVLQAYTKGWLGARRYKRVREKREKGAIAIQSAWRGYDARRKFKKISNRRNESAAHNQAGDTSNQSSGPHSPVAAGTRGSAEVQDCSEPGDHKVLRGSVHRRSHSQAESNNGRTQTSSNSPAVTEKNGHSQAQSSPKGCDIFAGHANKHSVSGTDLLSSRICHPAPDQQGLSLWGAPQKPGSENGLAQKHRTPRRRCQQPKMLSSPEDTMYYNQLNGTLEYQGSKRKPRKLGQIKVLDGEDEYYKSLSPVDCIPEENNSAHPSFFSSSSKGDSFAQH
Outline: as §1

[4] = molecular target: NTRK3/TRKC (Homo sapiens, UniProt Q16288)
Outline: as §1

[5] = molecular target: T4, PDK1 (Homo sapiens, UniProt O15530)
T4 sequence (O15530 1-556): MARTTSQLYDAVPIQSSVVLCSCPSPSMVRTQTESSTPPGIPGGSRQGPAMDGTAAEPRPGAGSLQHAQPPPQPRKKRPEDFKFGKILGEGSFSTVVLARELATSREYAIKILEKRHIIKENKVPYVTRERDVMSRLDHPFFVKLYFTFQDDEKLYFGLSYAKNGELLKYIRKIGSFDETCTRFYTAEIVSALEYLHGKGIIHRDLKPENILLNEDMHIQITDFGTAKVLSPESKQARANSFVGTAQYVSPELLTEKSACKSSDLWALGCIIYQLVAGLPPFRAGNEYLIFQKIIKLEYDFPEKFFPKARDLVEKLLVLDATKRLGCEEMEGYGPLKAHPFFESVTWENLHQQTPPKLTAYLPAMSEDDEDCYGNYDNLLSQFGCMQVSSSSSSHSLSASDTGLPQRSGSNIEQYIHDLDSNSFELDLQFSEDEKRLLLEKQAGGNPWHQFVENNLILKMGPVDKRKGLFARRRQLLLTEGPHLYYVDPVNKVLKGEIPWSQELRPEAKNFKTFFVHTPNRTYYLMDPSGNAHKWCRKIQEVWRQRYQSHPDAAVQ
Outline: as §1

[6] = molecular target: PRKAA2/AMPK221 (Homo sapiens, UniProt P54646)
Outline: as §1

Sequence of NTRK3/TRKC (Q16288 32-839): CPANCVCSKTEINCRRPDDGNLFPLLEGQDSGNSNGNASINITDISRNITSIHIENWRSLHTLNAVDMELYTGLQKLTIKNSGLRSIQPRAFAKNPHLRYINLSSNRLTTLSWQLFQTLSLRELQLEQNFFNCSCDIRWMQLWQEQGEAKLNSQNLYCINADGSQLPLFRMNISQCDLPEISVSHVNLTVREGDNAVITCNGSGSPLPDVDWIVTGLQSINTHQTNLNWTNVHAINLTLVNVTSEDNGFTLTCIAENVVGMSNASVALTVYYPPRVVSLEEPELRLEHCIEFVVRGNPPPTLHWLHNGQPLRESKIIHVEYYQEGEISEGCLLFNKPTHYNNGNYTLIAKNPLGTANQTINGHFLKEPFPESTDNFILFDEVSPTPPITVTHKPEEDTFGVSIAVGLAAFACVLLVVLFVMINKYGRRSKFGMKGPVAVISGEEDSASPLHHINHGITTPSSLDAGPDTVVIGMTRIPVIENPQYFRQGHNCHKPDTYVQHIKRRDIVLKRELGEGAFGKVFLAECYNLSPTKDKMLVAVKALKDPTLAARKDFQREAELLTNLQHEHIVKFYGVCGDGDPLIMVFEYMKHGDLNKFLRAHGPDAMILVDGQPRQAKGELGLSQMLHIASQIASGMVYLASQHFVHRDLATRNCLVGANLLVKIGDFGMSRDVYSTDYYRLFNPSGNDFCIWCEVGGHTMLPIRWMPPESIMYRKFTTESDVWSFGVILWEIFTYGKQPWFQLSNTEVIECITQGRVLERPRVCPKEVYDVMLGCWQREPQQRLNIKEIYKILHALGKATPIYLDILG
Sequence of PRKAA2/AMPK221 (P54646 whole entry, species assumed): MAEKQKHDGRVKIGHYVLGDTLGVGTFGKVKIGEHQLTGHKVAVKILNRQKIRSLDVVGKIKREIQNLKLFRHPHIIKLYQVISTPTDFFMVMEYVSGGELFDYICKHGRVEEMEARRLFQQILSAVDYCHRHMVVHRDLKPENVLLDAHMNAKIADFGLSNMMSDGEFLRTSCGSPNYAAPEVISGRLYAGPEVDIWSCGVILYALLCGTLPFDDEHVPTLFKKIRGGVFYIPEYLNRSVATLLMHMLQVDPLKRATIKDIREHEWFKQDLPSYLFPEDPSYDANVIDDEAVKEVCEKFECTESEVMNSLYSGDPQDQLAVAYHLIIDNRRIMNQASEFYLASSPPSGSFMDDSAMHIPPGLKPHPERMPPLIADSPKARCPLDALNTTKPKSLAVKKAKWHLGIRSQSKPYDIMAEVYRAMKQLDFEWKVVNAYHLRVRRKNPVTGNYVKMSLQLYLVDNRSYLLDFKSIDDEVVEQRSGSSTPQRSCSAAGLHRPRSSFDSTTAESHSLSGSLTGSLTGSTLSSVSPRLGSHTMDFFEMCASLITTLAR
Sequence of PRKAA2/AMPK221 (O43741 whole entry partner, species assumed): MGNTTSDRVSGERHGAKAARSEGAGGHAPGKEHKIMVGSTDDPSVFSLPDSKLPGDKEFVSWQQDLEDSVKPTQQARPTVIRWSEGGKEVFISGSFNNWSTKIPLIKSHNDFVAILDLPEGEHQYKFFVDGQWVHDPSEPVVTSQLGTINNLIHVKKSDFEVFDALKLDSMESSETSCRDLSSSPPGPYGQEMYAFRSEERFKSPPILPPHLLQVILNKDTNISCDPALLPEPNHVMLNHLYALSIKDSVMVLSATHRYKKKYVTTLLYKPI
Sequence of PRKAA2/AMPK221 (P54619 whole entry partner, species assumed): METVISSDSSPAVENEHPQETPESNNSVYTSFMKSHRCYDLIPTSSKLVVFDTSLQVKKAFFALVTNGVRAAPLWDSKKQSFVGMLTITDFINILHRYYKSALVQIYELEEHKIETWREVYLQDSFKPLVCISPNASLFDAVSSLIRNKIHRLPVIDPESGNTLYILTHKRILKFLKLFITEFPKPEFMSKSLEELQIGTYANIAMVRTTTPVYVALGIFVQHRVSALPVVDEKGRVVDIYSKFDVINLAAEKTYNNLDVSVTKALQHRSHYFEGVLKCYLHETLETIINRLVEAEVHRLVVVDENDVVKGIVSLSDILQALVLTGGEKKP
T2 sequence (P43250 whole entry, species assumed): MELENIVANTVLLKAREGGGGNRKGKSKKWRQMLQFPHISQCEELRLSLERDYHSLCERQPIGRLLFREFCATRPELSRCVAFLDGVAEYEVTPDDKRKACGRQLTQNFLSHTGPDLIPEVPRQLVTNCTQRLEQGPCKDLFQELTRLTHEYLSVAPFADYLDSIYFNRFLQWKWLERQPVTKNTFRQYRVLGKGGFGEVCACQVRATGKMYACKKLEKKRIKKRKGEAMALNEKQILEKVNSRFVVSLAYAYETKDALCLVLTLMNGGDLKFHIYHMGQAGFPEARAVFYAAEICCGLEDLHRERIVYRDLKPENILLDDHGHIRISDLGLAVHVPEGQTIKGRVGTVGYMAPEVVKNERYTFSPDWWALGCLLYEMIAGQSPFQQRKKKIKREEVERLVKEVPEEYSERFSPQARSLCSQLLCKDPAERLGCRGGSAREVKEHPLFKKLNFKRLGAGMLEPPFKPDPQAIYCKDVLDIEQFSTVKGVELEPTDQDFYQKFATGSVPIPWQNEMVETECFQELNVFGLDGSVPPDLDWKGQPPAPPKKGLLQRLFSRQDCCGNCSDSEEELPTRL

| Structure (SMILES) | inhibition at 1 µM [1] | inhibition at 1 µM [2] | inhibition at 1 µM [3] | inhibition at 1 µM [4] | inhibition at 1 µM [5] | inhibition at 1 µM [6] |
| --- | --- | --- | --- | --- | --- | --- |
| C=CC(=O)N1CCCC(c2c(F)cc(C(N)=O)c3[nH]c4c(c23)CCCCC4)C1 (single isomer, unassigned) [Compound 5-6] | 15.7% | 8% | -36.2% | -25.7% | 22.8% | -17.9% |
| C=CC(=O)N1CCC[C@@H](c2c(F)cc(C(N)=O)c3[nH]c4c(c23)CCC4)C1 [Compound 10-2, (S)-8-(1-acryloylpiperidin-3-yl)-7-fluoro-1,2,3,4-tetrahydrocyclo-penta[b]indole-5-carboxamide] | 15.3% | -1.9% | -11% | 2.9% | -28.3% | 32.1% |
| C=CC(=O)N1CCC[C@@H](c2c(F)cc(C(N)=O)c3[nH]c4c(c23)CC2(CC4)CC2)C1 [Compound 6-2, (S)-5-(1-acryloylpiperidin-3-yl)-6-fluoro-1,2,4,9-tetrahydrospiro[carbazole-3,1′-cyclopropane]-8-carboxamide] | 26.6% | -3.1% | -16.5% | 5.7% | -7.8% | 11.7% |
